Here are results for eleven molecules from ChEMBL document CHEMBL1201862, “PubChem BioAssay data set” (2004).

Holding throughout (test): NCI tumour cell line growth inhibition, 48 h
The test system of test [1] is TK-10.
Test [2] deals with ACHN.
For test [3], the system named is PC-3.
In test [4] the test system is MDA-N.
The test system of test [5] is SN12C.
Test [6] relates to SK-MEL-2.
The subject of test [7] is HCT-15.
Test [8] relates to MOLT-4.
Test [9] deals with NCI/ADR-RES.
Test [10] concerns SK-MEL-5.
Test [11] has as its system OVCAR-4.
Test [12] concerns EKVX.
Test [13] relates to HCT-116.
For test [14], the system named is UO-31.
In test [15] the test system is OVCAR-8.
For test [16], the system named is HOP-92.
For test [17], the system named is NCI-H23.
Test [18] relates to RPMI-8226.
The test system of test [19] is HL-60.

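Results reflect a 48-hour exposure of cells in 96-well plates to compound at five concentrations. Here, GI50 denotes the concentration required for 50% inhibition of growth.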 Activity calls are given as the source filed them. Rule as the data show it: active = GI50 up to about 1.1 µM and inactive = higher.

As for `O=C(NCCO)c1ccc(Cl)cc1`, the GI50 in test [1], in [2], in test [3], in test [4], in test [5] and in [6] was > 100 µM (inactive) in each case. Moreover, the GI50 in test [7] is more than 100 µM; in test [8] it was > 100 µM (inactive); in test [9], > 100 µM (inactive); in test [10], > 100 µM (inactive); in [11], > 100 µM (inactive); in test [12], > 100 µM (inactive). Also, the GI50 in [13], in [14], in test [15], in test [16] and in [17] was > 100 µM (inactive) each time.
Take `COc1ccc(NCc2c(O)ccc3ccccc23)cc1`: the GI50 in test [1] is 17.9 µM (inactive); in test [2], 13.4 µM (inactive); in test [3] it was 17.1 µM (inactive); in [4], 30.1 µM (inactive); in test [5] it was 34.4 µM (inactive); in [18], 24.7 µM (inactive). Moreover, the GI50 in test [6] was 64.1 µM (inactive); in [7], 13.7 µM; in [9], 40.5 µM (inactive); in test [10], 12.4 µM (inactive); in [11] it was 43.1 µM (inactive); in [12], 18.9 µM (inactive). In addition, the GI50 in [13] was 33.8 µM (inactive); in [14], 11.3 µM (inactive); in test [15] it was 15.8 µM (inactive); in test [16], 16.1 µM (inactive); in test [17] it was 36.3 µM (inactive).
As to `Clc1cc(N/N=C(/c2ccccc2)c2ncccn2)ncn1`, the GI50 in test [2] is 4.78 µM (inactive); in test [3] it was 32.7 µM (inactive); in [4], 62.8 µM (inactive); in [5], 29.2 µM (inactive); in [18], 16.5 µM (inactive); in [6], 32.7 µM (inactive). In addition, the GI50 in test [7] is 17.9 µM; in [8], 5.87 µM (inactive); in [9], 20.1 µM (inactive); in test [10] it was 25.8 µM (inactive); in [11], 22.1 µM (inactive); in [12] it was 17 µM (inactive). Also, the GI50 was 7.26 µM (inactive) in test [13]; 19.5 µM (inactive) in test [14]; 16.5 µM (inactive) in test [15]; 14.7 µM (inactive) in test [16]; 21.4 µM (inactive) in test [17].
As for `CC1[C@@H](OCc2ccccc2)COC(=O)N1Cc1ccccc1` (stereo not given in full), the GI50 in test [1] was > 100 µM (inactive); in test [2], > 100 µM (inactive); in test [3] it was 93.8 µM (inactive); in [4] it was > 100 µM (inactive); in test [5], > 100 µM (inactive); in [18], 52.2 µM (inactive). Moreover, the GI50 in test [6] was > 100 µM (inactive); in [7] it was more than 100 µM; in [8], 33.3 µM (inactive); in test [9], 49.4 µM (inactive); in [10], 69.5 µM (inactive); in test [11], 78 µM (inactive). The GI50 in test [12] was 78.9 µM (inactive); in test [13] it was > 100 µM (inactive); in [14], 32.7 µM (inactive); in test [15], > 100 µM (inactive); in test [16], 5.27 µM (inactive); in test [17] it was 52.1 µM (inactive).
For `CC1=C(C(N)=O)C(c2ccncc2)C(C#N)=C2SCC(=O)N12` (stereo not given), the GI50 in test [2], in test [3], in test [4], in test [5], in test [18] and in test [6] was > 100 µM (inactive) in each case. Further, the GI50 in test [7] is more than 100 µM; in test [8] it was > 100 µM (inactive); in [9], > 100 µM (inactive); in test [10] it was > 100 µM (inactive); in test [11], > 100 µM (inactive); in [12] it was > 100 µM (inactive). Also, the GI50 in test [13], in [14], in test [19], in test [15], in test [16] and in test [17] was > 100 µM (inactive) in each case.
`CCOC(=O)c1c[nH]cc1-c1cn(S(=O)(=O)c2ccccc2)cc1C`: the GI50 in test [1] is 35.6 µM (inactive); in [2], 18.9 µM (inactive); in test [3] it was 18.6 µM (inactive); in test [4], 17.9 µM (inactive); in test [5], 25.2 µM (inactive); in test [6] it was 32.2 µM (inactive). Further, the GI50 is 22.9 µM in [7]; 20.4 µM (inactive) in [8]; 22.2 µM (inactive) in test [9]; > 10 µM (inactive) in [10]; 39.4 µM (inactive) in test [11]; 14.6 µM (inactive) in test [12]. Also, the GI50 is 21.6 µM (inactive) in test [13]; 27.5 µM (inactive) in [14]; 26.2 µM (inactive) in test [19]; 28.7 µM (inactive) in [15]; 26 µM (inactive) in [16]; 24.6 µM (inactive) in [17].
Take `CN(C)c1ccc(/C=C(/NC(=O)c2ccccc2)C(=O)Nc2ccccc2C(=O)O)cc1`: the GI50 in test [2], in test [3], in test [4], in test [5], in test [18] and in [6] was > 100 µM (inactive) each time. For the same molecule, the GI50 is more than 100 µM in test [7]; > 100 µM (inactive) in [8]; > 100 µM (inactive) in test [9]; > 100 µM (inactive) in test [10]; > 100 µM (inactive) in test [12]; > 100 µM (inactive) in test [13]. For the same molecule, the GI50 in test [14], in test [19], in test [15], in [16] and in test [17] was > 100 µM (inactive) throughout.
In the case of `C/C=C(\C)c1cc(=O)c2c(C)cc3c(c2o1)C(OC)(OC(C)=O)c1c(O)c(C2CC(C)(N(C)C)C(OC(C)=O)C(C)O2)cc(C2CC(N(C)C)C(OC(C)=O)C(C)O2)c1C3=O` (stereo not given), the GI50 in [1] is 1.45 µM (inactive); in test [2] it was 0.202 µM (active); in test [3] it was 1.16 µM (inactive); in test [4] it was 1.64 µM (inactive); in test [5], 0.893 µM (active); in test [6], 2.18 µM (inactive). For the same molecule, the GI50 in test [7] is 1.05 µM; in [8], 0.277 µM (active); in [9], 1.75 µM (inactive); in test [10], 1.51 µM (inactive); in test [12], 1.07 µM (active); in [13], 0.286 µM (active). For the same molecule, the GI50 in test [14] was 1.57 µM (inactive); in [15], 0.552 µM (active); in test [16], 1.28 µM (inactive); in [17], 1.02 µM (active).
Turning to `Cc1oc2c(c1C)S(=O)(=O)C(C#N)=C(c1ccccc1)N2`, the GI50 in test [1], in test [2], in test [3], in test [4], in test [5] and in test [18] was > 100 µM (inactive) throughout. For the same molecule, the GI50 was > 100 µM (inactive) in [6]; more than 100 µM in test [7]; > 100 µM (inactive) in [8]; > 100 µM (inactive) in test [9]; > 100 µM (inactive) in test [10]; > 100 µM (inactive) in test [11]. The GI50 in [12], in [14], in test [15], in test [16] and in test [17] was > 100 µM (inactive) throughout.
As for `Nc1ncnc2c1N=C(c1ccccc1)CC(c1ccccc1)N2` (stereo not given), the GI50 in test [1], in [2], in [3], in [4], in test [5] and in [18] was > 100 µM (inactive) throughout. For the same molecule, the GI50 in test [6] was > 100 µM (inactive); in test [7] it was more than 100 µM; in [8], > 100 µM (inactive); in [9] it was 59.2 µM (inactive); in [11], > 100 µM (inactive); in [12], > 100 µM (inactive). Also, the GI50 in [13], in test [14], in [15], in [16] and in test [17] was > 100 µM (inactive) each time.
For the molecule `CC(C)(C)n1c(=O)n(-c2ccccc2)n(C(C)(C)C)c1=O`, the GI50 in [1], in test [2], in test [3], in test [4], in test [5] and in test [6] was > 100 µM (inactive) each time. In addition, the GI50 was more than 100 µM in test [7]; > 100 µM (inactive) in [8]; > 100 µM (inactive) in test [9]; > 100 µM (inactive) in test [10]; > 100 µM (inactive) in [11]; > 100 µM (inactive) in test [12]. Moreover, the GI50 in [13], in test [14], in test [19], in [15], in test [16] and in test [17] was > 100 µM (inactive) in each case.
